# Patent US20110071124A1, “Compounds that Inhibit Production of sAPPB and AB and Uses Thereof” (The Trustees of Columbia University in the City of New York, priority 2008, published 2011)
# Read-outs that look alike come from different tables or passages of the source.
# Tests used:
# [1] = test system: Aβ40 in SY5Y-BACEGFP-SEAPAPPwt cells; test: Aβ40 ELISA (BioSource) in SY5Y-BACEGFP-SEAPAPPwt cells; format: cell-based; conditions: for IC50: SAR study, 8 concentrations (30-0.01 μM), SY5Y-BACEGFP-SEAPAPPwt cells
# Description: FIG. 11. 5 LDDN compounds reduce Aβ40 in SYSY-BACEGFP-SEAPAPPwt cells. sAPPβ and 24-hour cell viability was performed as described in Chapter 4.1. Aβ40 ELISA was performed using the Aβ40 ELISA kit (BioSource) according to the manufacturer's protocol. Cell culture media was collected after 6 hours of treatment with 4 concentrations (30, 10, 3, 0.3 μM) of compound and diluted 3:10 prior to loading onto the Aβ ELISA plate. The data points for sAPPβ and Aβ were roughly superimposed. Data points represent mean±s.d. of 3 determinations.
# (§1) FIG. 13. […] Compounds were tested in SY5Y-BACEGFP-SEAPAPPwt cells using the cell-based BACE1 assay. Select compounds were also investigated for Aβ-lowering effect using a commercial Aβ ELISA kit (BioSource). All compounds were tested at 8 concentrations (30, 10, 3, 1, 0.3, 0.1, 0.03, and 0.01 μM), and data points were analyzed with Origin software and fitted using a logistic model for IC50 determination.
# In other non-limiting embodiments, the effective amount of at least one compound of Formulas I-VII, and/or a compound depicted in FIG. 19, may be correlated with the compound's ability to reduce the level of Aβ40 in an in vitro assay that measures the level of Aβ40 produced in a cell line, for example, an SY5Y-BACEGFP-SEAPAPPwt cell line. In one non-limiting example, the level of Aβ40 expressed by the cell line may be measured through the use of an Aβ40 Elisa kit (Bio Source). In one embodiment, the assay comprises incubating the Aβ40 expressing cells with a compound of Formulas I-VII, and/or a compound depicted in FIG. 19, followed by assaying the concentration of Aβ40 in the cell media. In such an assay, a greater reduction of Aβ40 concentration in the cell media following incubation with a compound compared to a control cell line not contacted with the compound is correlative with the compound's therapeutic efficacy.
# The 15 LDDN compounds were tested in SY5Y-BACEGFP-SEAPAPPwt cells for their ability to reduce Aβ40 using a commercial Aβ40 ELISA kit (BioSource). SY5Y-BACEGFP-SEAPAPPwt cells were grown to 100% confluence and incubated with 4 concentrations of each compound (30, 10, 3, 0.3 μM). Cell culture media was collected after 6 hours of compound incubation and diluted 3:10 in sample diluent supplied in the Aβ40 ELISA kit. Aβ ELISA was performed according to the manufacturer's protocol. […] LDN-0057228 and LDN-0069630 are small molecules with ample chemical space for modification, and are thus considered good candidates for medicinal chemistry.
# (§2) 27 structural analogs of LDN-0057228 were synthesized and tested using the cell-based BACE1 assay in SY5Y-BACEGFP-SEAPAPPwt cells (FIG. 13). 4 analogs, in addition to the parent compound, were also assessed for Aβ40 lowering activity using a commercial Aβ kit (BioSource). Because LDN-0057228 resembles CNS monoamine transporter inhibitors, this analog series was given the designation “CNS.” LDN-0057228 gave an unexpectedly low potency (IC50˜20 μM for both sAPPβ and Aβ40 reduction) compared to the ˜7 μM potency obtained using the same compound in FIG. 8.
# [2] = test system: sAPPβ (BACE1 cleavage of SEAP-APPwt) in SY5Y-BACEGFP-SEAPAPPwt cells; test: cell-based BACE1 assay (sAPPβ modified ELISA)
# Description: FIG. 1. An sAPPβ assay utilized to identify inhibitors of BACE1. The assay utilizes SY5Y cells stably overexpressing BACE-GFP and SEAP-APPwt. Cells are incubated with a candidate compound for 6 hours prior to harvesting media. BACE1-mediated cleavage of APP results in the release of sAPPβ into the media. α-secretase, a competing enzyme that is non-amyloidogenic, also cleaves APP to release […]. Using an sAPPβ-specific antibody (sβwt), SEAP-sAPPβ is specifically captured in a modified ELISA assay. Detection is achieved by addition of the fluorescent alkaline phosphatase substrate, 4-methylumbelliferyl phosphate (4-MUP).
# as §1
# As described in the Examples below, and depicted in FIG. 1, an sAPPβ ELISA assay may comprise cells, for example, SY5Y cells, transfected with a BACE1 reporter construct, such as a GFP-tagged BACE1 (BACE-GFP), and a wild type APP reporter construct, such as a secreted alkaline phosphatase (SEAP)-tagged wild type APP (SEAP-APPwt). BACE1 cleavage of the reporter-tagged APP (e.g. SEAP-APPwt) may result in secretion into the media of SEAP-tagged sAPPβ, which may be collected and specifically captured using an sAPPβ cleavage site-specific antibody (e.g. stβwt). Following washing, a substrate may be used, for example, the fluorescent alkaline phosphatase substrate 4-methylumbelliferyl phosphate (4-MUP), to detect the captured SEAP-sAPPβ.
# A cell-based modified ELISA assay for measuring sAPPβ, the secreted ectodomain of β-amyloid precursor protein (APP) following β-secretase (BACE1) cleavage, was used to identify a class of compounds that interfered with the first step of sAPPβ generation. This assay has been described in International Application PCT/US2007/015938 (Published as International Publication No. WO 08/008463), which is herein incorporated in its entirety for all purposes.
# The SY5Y-BACEGFP-SEAPAPPwt cell based assay was developed to discover novel small molecule modulators of BACE1 activity. SY5Y cells were stably transfected with GFP-tagged BACE1 (BACE-GFP) and secreted alkaline phosphatase (SEAP)-tagged wildtype APP (SEAP-APPwt). BACE1 cleavage of SEAP-APPwt results in secretion into the media of SEAP-tagged sAPPβ, which is collected and specifically captured using an sAPP0 cleavage site-specific antibody (sβwt). After washing, the fluorescent alkaline phosphatase substrate 4-methylumbelliferyl phosphate (4-MUP) is used to detect the captured SEAP-sAPPβ (FIG. 1).
# The 15 LDDN compounds selected based on their 3-point dose-response profile were tested at 12 concentrations (ranging from 0.1 nM to 30 μM) in the cell-based BACE1 assay. The assay was conducted in 96-well format to maximize the Z′ factor. Compounds were characterized in duplicate cell plates, each containing 12 doses of compound in triplicate. Cell viability was measured at 6 and 24 hours using Promega's Cell Titer-Glo kit according to the manufacturer's protocol. The dose-response curves for sAPPβ reduction were plotted using Origin software and fitted using a logistic model for IC50 determination.
# as §2
# [3] = fluorescent readout interference: BACE1 substrate standard (cleaved peptide) without BACE1 enzyme; conditions: highest of 12 concentrations
# Description: Because the enzymatic assay is performed with compound in the reaction mixture (in contrast to the cell-based BACE1 assay, where the compound is washed away after antibody-mediated specific capture of sAPPβ), it is conceivable that the compound itself may interfere with the fluorescent readout of the enzymatic BACE1 assay. To explore this possibility, BACE1 substrate standard (cleaved peptide, supplied in the assay kit) was incubated with 12 concentrations of LDN-0040630, LDN-0089308, LDN-0096529, and LDN-0091841 in the absence of BACE1 enzyme.
# [4] = molecular target: T1, purified recombinant β-secretase (BACE1) (Homo sapiens, UniProt P56817); test: BACE1 FRET enzymatic assay (Invitrogen); format: biochemical; conditions: for dose-dependent inhibition of β-secretase: 3 concentrations (0.1, 1, and 10 μM); for IC50: 12 doses, read-out: enzymatic IC50 (FRET-based BACE1 assay)
# T1 construct: purchased Invitrogen
# T1 sequence (P56817 46-501): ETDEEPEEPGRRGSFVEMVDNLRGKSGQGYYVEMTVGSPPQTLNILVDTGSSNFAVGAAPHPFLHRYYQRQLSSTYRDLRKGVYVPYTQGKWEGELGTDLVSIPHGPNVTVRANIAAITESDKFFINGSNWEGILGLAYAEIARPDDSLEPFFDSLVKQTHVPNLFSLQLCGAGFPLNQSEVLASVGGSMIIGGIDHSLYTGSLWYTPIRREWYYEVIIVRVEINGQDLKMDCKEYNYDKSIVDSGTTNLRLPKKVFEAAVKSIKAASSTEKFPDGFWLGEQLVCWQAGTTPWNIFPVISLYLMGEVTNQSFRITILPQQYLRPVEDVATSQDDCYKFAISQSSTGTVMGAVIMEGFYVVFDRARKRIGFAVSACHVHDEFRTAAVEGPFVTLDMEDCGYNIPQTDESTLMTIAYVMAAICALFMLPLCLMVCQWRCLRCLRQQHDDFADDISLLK
# Excerpt: FIG. 10. 4 compounds reduce BACE1 activity in an enzymatic assay. To further classify the small molecule hits, a FRET-based BACE1 enzymatic assay (Invitrogen) was used to identify potential direct BACE1 inhibitors.
# In other non-limiting embodiments, the effective amount of at least one compound of Formulas I-VII, and/or a compound depicted in FIG. 19, may be correlated with the compound's ability to inhibit the enzymatic activity of a BACE1 enzyme. The compound's BACE1 inhibitory effect may be assayed, for example, through use of a BACE1 FRET Assay kit (Invitrogen Corp., Carlsbad, Calif., U.S.A.), wherein the fluorescence resonance energy transfer (FRET)-based assay measures the cleavage by purified recombinant β-secretase of a peptide substrate corresponding to the BACE1 cleavage site of Swedish mutant APP. In such an assay, a greater reduction in fluorescence in the reaction mixture following incubation with a compound of the invention compared to a control cell line not contacted with the compound is correlative with the compound's therapeutic efficacy.
# Because the cell-based BACE1 assay has the potential to uncover direct as well as indirect inhibitors of β-secretase, a commercial BACE1 enzymatic assay was employed to classify the small molecule hits. The BACE1 FRET Assay kit was purchased from Invitrogen and used according to the manufacturer's protocol. This fluorescence resonance energy transfer (FRET)-based assay measures the cleavage by purified recombinant β-secretase of a peptide substrate corresponding to the BACE1 cleavage site of Swedish mutant APP. The 15 LDDN hits were first tested at 3 concentrations (0.1, 1, and 10 μM) to determine if there is a dose-dependent inhibition of β-secretase.
# [5] = test system: SY5Y-BACEGFP-SEAPAPPwt cells; conditions: tagged-triazine hits, 10 μM
# Description: Of the 147 hits selected during the primary screen, 139 were retested in a 3-point dose-response (10, 2, 0.2 μM) confirmatory screen. BACE1 assay was performed as described, and cell viability was determined by Cell Titer AQeous One cell proliferation assay (Promega). Representative data from four compounds are shown. Data points represent mean±s.d. of four determinations.
# The primary screen for the nearly 3,000-compound tagged-triazine library was conducted in 96-well format by hand. Compounds were supplied in powder form in 96-well polypropylene plates. The compounds were first dissolved in DMSO to generate 10 mM stock plates, then stamped onto new polypropylene plates to make 1 mM working stock solution. For assay, 1 mM working stock solution was diluted 1:100 into cell culture media for a final concentration of 10 μM. […] Negative (DMSO) and positive (BACE inhibitor IV at 10 μM) controls were included on every screening plate in triplicate for quality control and calculation of Z′ factors.
# The 144 hits from the primary screen were rescreened in triplicate at 10 μM to confirm the activity and to assess cytotoxicity.
# Of the 147 hits from the primary screen, 139 were retested for 3-point dose-response at 10, 2, and 0.2 μM concentrations in quadruplicate. […] The compounds were simultaneously evaluated for cytotoxicity using the Cell Titer AQueous One cell proliferation assay (Promega). […]
# [6] = test system: Aβ40 in Lenti-APPsw infected primary cortical neurons; test: Aβ40 ELISA in Lenti-APPsw infected primary cortical neurons; format: cell-based, mouse; conditions: 24 hours
# Description: FIG. 15A-D. LDN-0057228 reduces Aβ40 and sAPPβ in primary neurons. DIV-14 primary cortical neurons from wild-type mice were incubated for 24 hours with primary culture media containing lentivirus harboring APPsw. After infection, neurons were incubated for 48 hours with 1:1 fresh to conditioned media to allow for APP expression. Neurons were then treated with LDN-0057228 at 20 μM for 24 hours in triplicate. A) Media was collected for Aβ40 ELISA. Raw Aβ40 values were normalized to APP to control for variations in lentiviral infection efficiency. B) Cell lysates were probed with 6E10 antibody to visualize the transduced full-length APP. C) sAPPβ from neuron culture media was immunoprecipitated with sβsw antibody and probed with LN27. D) Quantification of sAPPβ, normalized to APP. Data in A) and […]) represent mean+s.d. of 3 wells. Bands from B) and C) were quantified using ImageJ software.
# FIG. 16A-B. CNS-2 and LDN-0057228 reduce Aβ40 in primary neurons. DIV-14 primary cortical neurons from wild-type mice were incubated for 24 hours with primary culture media containing lentivirus harboring APPsw. After infection, neurons were incubated for 48 hours with 1:1 fresh to conditioned media to allow for APP expression. Neurons were then treated for 24 hours with the indicated compound and concentration. A) Media was collected for Aβ40 ELISA. Raw Aβ40 values were normalized to APP to control for variations in lentiviral infection efficiency. B) Cell lysates were probed with 6E10 antibody to visualize the transduced full-length APP.
# Lenti-APPsw infected primary cortical neurons were selected for the initial round of physiological experiments due to the relatively large batches of wild-type primary cortical neurons that were routinely harvested in the lab, the ease of lentiviral packaging. Primary cortical neurons were harvested from wild-type P0 pups using established protocols.
# The Lenti-APPsw vector was co-transfected into HEK293 T cells with ViraPower packaging mix (Invitrogen) to generate the lentivirus. Lentiviral-mediated transduction of APPsw in primary neurons was performed by adding neuron primary culture media containing the lentiviral particles to wild-type DIV-14 primary neurons (FIG. 14). After 24 hours, neurons were incubated with media for 72 hours prior to collecting for Aβ40 measurement. Two batches of virus (LV-1 and LV-2) were tested, showing that there is batch-to-batch variation in the viral titer.
# Using this experimental paradigm, LDN-0057228 was tested at 20 μM concentration to confirm the sAPPβ- and Aβ-lowering activity of the compound (FIG. 15). The protocol was modified slightly to allow for 24-hour compound treatment. […]
# [7] = SAR study, 8 concentrations (30-0.01 μM), SY5Y-BACEGFP-SEAPAPPwt cells, read-out: IC50(sAPPβ)
# [8] = 12 concentrations 0.1 nM to 30 μM, 96-well format (FIG. 8), read-out: cell-based IC50 (sAPPβ), 12-point dose-response
# [9] = 10 μM, triplicate rescreen of tagged-triazine hits
compound,measurement,setting,value
"Fc1ccc(C(OCCN2CCN(CCCc3ccccc3)CC2)c2ccc(F)cc2)cc1 [GBR 12909, reference compound]",IC50,[1],14.5 µM
same,IC50,[2]; [7],34.6 µM
COc1ccccc1C(=O)Nc1nc2ccccc2n1CCOc1ccccc1 [LDN-0091841],maximal inhibition of the fluorescence signal in the absence of BACE1 enzyme,[3],25%
same,dose-dependent inhibition of β-secretase,[4],exhibited a dose-dependent effect
same,IC50,[4],5.15 µM
same,IC50,[2]; [8],2.61 µM
NCCOCCOCCNC(=O)c1ccc(CNc2nc(NCC3CCCCC3)nc(N3CCCCC3)n2)cc1 [AM-D-E4],effect on cell viability,[5],did not affect cell viability
same,increase in sAPPβ,[2]; [9],36%
Oc1cc(-c2ccccc2)nn1-c1nc2ccccc2[nH]1 [LDN-0089308],maximal inhibition of the fluorescence signal in the absence of BACE1 enzyme,[3],25%
same,dose-dependent inhibition of β-secretase,[4],exhibited a dose-dependent effect
same,IC50,[4],2.14 µM
same,IC50,[2]; [8],3.05 µM
CNC[C@@H]1CCCN1CCOC(c1ccc(F)cc1)c1ccc(F)cc1 [CNS-3],IC50,[1],11.5 µM
same,IC50,[2]; [7],11.5 µM
NCCOCCOCCNc1nc(N2CCCC2)nc(N2CCN(c3ccc([N+](=O)[O-])cc3)CC2)n1 [TG-CD-D7],effect on cell viability,[5],did not affect cell viability
same,inhibition of sAPPβ,[2]; [9],43%
CS(=O)(=O)c1nnnn1-c1ccccc1Cl [LDN-0069630],dose-dependent decrease in Aβ40,"[1]; 4 concentrations (30, 10, 3, 0.3 μM), 6 hours",caused a dose-dependent decrease in Aβ40
same,reduction in Aβ40,[6]; 10 μM,15%
same,reduction in Aβ40,[6]; 15 μM,40%
